Literature values as cited in patent publication US9695131B2, “Substituted uracils as chymase inhibitors” (Bayer Pharma Aktiengesellschaft, priority 2013, dated 2017).

Tested on: hamsters with myocardial infarction

CCOc1ccccc1CC1C(=O)N(C(=O)NC(c2ccc(C)cc2)c2ccc(C)cc2)C1Oc1ccc(C(=O)O)cc1 (stereo not drawn) [BCEAB]
chymase activity: reduced | haemodynamics: improved | mortality: reduced
